# Experimental data: patent US20070213291A1, “Therapeutically useful synthetic oligonucleotides” (priority 1999, published 2007)
# Where “and” joins values, the source holds several entries; their conditions need not be identical. Identical values can stand only once.
# Columns and labels:
# Assay type in all cases: cell-based
# [1] = system: A20 murine B leukemia cells; experiment: Inhibition of A20 cell proliferation (MTT); conditions: 100 μg/ml, 48 h
# Method: (§1) Cells were seeded in 6 (1 ml/well), 24 (0.5 ml/well) or 96 (0.1 ml/well) well flat-bottom microplates and were maintained at 37° C. in a 5% CO2 atmosphere. Unless stated otherwise, 2.5×10^5 cells/ml were incubated with 0 μg/ml (control) and 100 μg/ml (treated) of 2 to 45 base sequences containing A, C, G and T for 48 h.
# (§2) Cell proliferation was measured using dimethylthiazol-diphenyl-tetrazolium (MTT) reduction (Mosman et al. J. Immunol. Methods 65:55, 1983). MTT was measured at a wavelength of 570 nm using a multiplate spectrophotometer reader (ELX800, Bio-TEK Instruments Inc., Winooski, Vt.).
# A20 murine leukemia B cells are a suspension tumor model. A20 murine leukemia B cells were incubated with 6 base GT sequences (Table 19).
# [2] = system: Jurkat human leukemia T cells; experiment: Apoptosis by phosphatidylserine/annexin V-FITC flow cytometry; conditions: 50 μM sequence
# How it was run: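 Jurkat cells were exposed to 3–7-base oligonucleotides (GT, ACGT, AG, GG, AGT, CGT sequences) at 50 μM. Separately, 6-base GT and complementary AC sequences, alone or hybridized 1:1 (10 min, 65 °C), were applied for 24 h. Phosphatidylserine exposure was quantified by flow cytometry with FITC-annexin V.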
# [3] = system: human peripheral blood mononuclear cells; experiment: Cytokine production by human PBMC (ELISA); conditions: PBMC of 7 healthy humans, 100 μg/ml, 48 h
# How it was run: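 PBMC from 7 healthy donors, Ficoll-isolated; 1×10^6 cells incubated with 100 μg/ml oligonucleotide sequence for 48 h at 37 °C, 5% CO2. IL-1beta, IL-6, IL-10, IL-12 (p70 plus free p40) and TNF-alpha measured by ELISA in supernatant, expressed as fold increase over control cells.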
# chimpanzee PBMCs = experiment: Cytokine production by chimpanzee PBMC (ELISA); conditions: PBMC of 4 healthy chimpanzees, 100 μg/ml, 48 h
# How it was run: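 PBMCs from 4 healthy chimpanzees (1×10^6 cells) were incubated 48 h at 37 °C, 5% CO2 with 100 μg/ml of each 6-base sequence. Supernatant IL-10, IL-12 (p70 plus free p40) and TNF-alpha were measured by ELISA. Values are fold increase over untreated control cells.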
# [4] = system: MCF-7 human breast cancer cells; experiment: Inhibition of MCF-7 cell proliferation (MTT); conditions: for % INHIBITION of MCF-7 human breast cancer cell proliferation: 100 μg/ml, 48 h, 5×10^5 cells/ml
# How it was run: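 Cells at 2.5×10^5 cells/ml (GT 3- and 6-base series at 5×10^5 cells/ml) treated with 100 μg/ml of 2-45-base oligonucleotide sequences versus untreated control for 48 h at 37 °C, 5% CO2. Proliferation read by MTT reduction at 570 nm.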
# [5] = system: THP-1 human acute monocytic leukemia cells; experiment: Cytokine production by THP-1 cells (ELISA); conditions: THP-1, 1×10^6 cells, 100 μg/ml, 48 h; for ↑ IL-12 (fold increase treated vs control cells): p70 complex and free p40
# How it was run: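 1×10^6 cells exposed to 100 μg/ml of each oligonucleotide sequence for 48 h at 37° C in 5% CO2, unless stated otherwise. Cytokines quantified in culture supernatant by ELISA, IL-12 assay detecting both p70 and free p40; values are fold increase over untreated control cells.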
# [6] = system: Jurkat human leukemia T cells; experiment: Inhibition of Jurkat human leukemia T cell proliferation (MTT reduction); conditions: for % INHIBITION of Jurkat proliferation at suboptimal concentration: 5.0 μg/ml of each 6 base sequence, alone or two together; for % INHIBITION of Jurkat human leukemia T cell proliferation: 100 μg/ml sequence, 48 h, 2.5×10^5 cells/ml
# How it was run: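 Jurkat cells at 2.5×10^5 cells/ml exposed to 100 μg/ml of 2–45-base A/C/G/T sequences (0 μg/ml control) for 48 h, 37° C, 5% CO2. Viability by MTT reduction read at 570 nm.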
# [7] = system: LNCaP human prostate cancer cells; experiment: Inhibition of LNCaP cell proliferation (MTT); conditions: 100 μg/ml, 48 h, 5×10^5 cells/ml
# How it was run: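 Cells (2.5×10^5 or 5×10^5 cells/ml) exposed to 100 μg/ml of 2–45 base A/C/G/T sequences, including 6-base GT sequences, versus untreated control, 48 h at 37 °C, 5% CO2. Proliferation read by MTT reduction at 570 nm.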
# [8] = system: THP-1 human acute monocytic leukemia cells; experiment: Inhibition of THP-1 cell proliferation (MTT); conditions: 100 μg/ml, 48 h, 1.6×10^6 cells/ml
# Method: as §1, §2
# THP-1 acute monocytic leukemia cells are a p53 null human suspension tumor model. THP-1 cells (1.6×10^6 cells/ml) were incubated with 6 base GT sequences (Table 10).
# [9] = 5-fluorouracil 0.1 μg/ml, alone or with sequence at 1.0 μg/ml
# [10] = 5-fluorouracil 1.0 μg/ml, alone or with sequence at 1.0 μg/ml
# [11] = 5-fluorouracil 10.0 μg/ml, alone or with sequence at 1.0 μg/ml
# [12] = sequence at 1.0 μg/ml, 5-fluorouracil 0.0 μg/ml
sequence,measurement,setting,value
GTGTGT [SEQ ID NO:10],% INHIBITION of A20 murine B leukemia cell proliferation,[1],9%
same,% of cells in apoptosis (positive for PS/A-V staining),[2],33%
same,IL-1 beta fold increase: mean +/− SD,[3],2.0 +/− 1.6 fold increase
same,IL-6 fold increase: mean +/− SD,[3],9.8 +/− 14.2 fold increase
same,IL-10 fold increase: mean +/− SD,[3],1.0 +/− 0.1 fold increase
same,IL-12 fold increase: mean +/− SD,[3],4.0 +/− 6.3 fold increase
same,IL-10 fold increase: mean +/− SD,chimpanzee PBMCs,4.0 +/− 2.1 fold increase
same,IL-12 fold increase: mean +/− SD,chimpanzee PBMCs,14.0 +/− 8.5 fold increase
same,TNF-alpha fold increase: mean +/− SD,chimpanzee PBMCs,12.9 +/− 6.4 fold increase
same,% INHIBITION of MCF-7 human breast cancer cell proliferation,[4],31%
same,↑ IL-6 (fold increase treated vs control cells),[5],5.0x
same,↑ IL-12 (fold increase treated vs control cells),[5],2.2x
same,% INHIBITION of Jurkat proliferation at suboptimal concentration,[6],2%
same,% INHIBITION of Jurkat human leukemia T cell proliferation,[6],44% and 48%
same,% INHIBITION of LNCaP human prostate cancer cell proliferation,[7],−4%
same,% INHIBITION of THP-1 human acute monocytic leukemia cell proliferation,[8],11%
GGGTGG [SEQ ID NO:25],% INHIBITION of A20 murine B leukemia cell proliferation,[1],11%
same,% of cells in apoptosis (positive for PS/A-V staining),[2],27%
same,IL-1 beta fold increase: mean +/− SD,[3],1.0 +/− 0.1 fold increase
same,IL-6 fold increase: mean +/− SD,[3],20.9 +/− 18.0 fold increase
same,IL-10 fold increase: mean +/− SD,[3],11.6 +/− 1.2 fold increase
same,IL-12 fold increase: mean +/− SD,[3],13.2 +/− 11.5 fold increase
same,IL-10 fold increase: mean +/− SD,chimpanzee PBMCs,2.5 +/− 1.5 fold increase
same,IL-12 fold increase: mean +/− SD,chimpanzee PBMCs,13.5 +/− 8.4 fold increase
same,TNF-alpha fold increase: mean +/− SD,chimpanzee PBMCs,11.7 +/− 6.7 fold increase
same,% INHIBITION of MCF-7 human breast cancer cell proliferation,[4],41%
same,"% INHIBITION of MCF-7 proliferation, 5-Fluorouracil 0.1 μg/ml",[4]; [9],24%
same,"% INHIBITION of MCF-7 proliferation, 5-Fluorouracil 1.0 μg/ml",[4]; [10],36%
same,"% INHIBITION of MCF-7 proliferation, 5-Fluorouracil 10.0 μg/ml",[4]; [11],33%
same,potentiation of antineoplastic effect of 5-fluorouracil on MCF-7 cell proliferation,"[4]; sequence 1.0 μg/ml, 0.1 μg/ml 5-fluorouracil",potentiated
same,potentiation of antineoplastic effect of tamoxifen on MCF-7 cell proliferation,"[4]; sequence 1.0 μg/ml, 0.1 μg/ml tamoxifen",potentiated
same,"% INHIBITION of MCF-7 proliferation, 5-Fluorouracil 0.0 μg/ml",[4]; [12],6%
same,"% INHIBITION of MCF-7 proliferation, Tamoxifen 0.0 μg/ml","[4]; sequence at 1.0 μg/ml, tamoxifen 0.0 μg/ml",6%
same,"% INHIBITION of MCF-7 proliferation, Tamoxifen 0.1 μg/ml","[4]; tamoxifen 0.1 μg/ml, alone or with sequence at 1.0 μg/ml",21%
same,"% INHIBITION of MCF-7 proliferation, Tamoxifen 1.0 μg/ml","[4]; tamoxifen 1.0 μg/ml, alone or with sequence at 1.0 μg/ml",24%
same,"% INHIBITION of MCF-7 proliferation, Tamoxifen 10.0 μg/ml","[4]; tamoxifen 10.0 μg/ml, alone or with sequence at 1.0 μg/ml",31%
same,↑ IL-6 (fold increase treated vs control cells),[5],3.1x
same,↑ IL-12 (fold increase treated vs control cells),[5],2.3x and 2.0x
same,↑ IL-12 (fold increase treated vs control cells),[5]; listed as GoGoGoToGoGo,2.0 x
same,% INHIBITION of Jurkat proliferation at suboptimal concentration,[6],5%
same,% INHIBITION of Jurkat human leukemia T cell proliferation,[6],60%
same,"% INHIBITION of Jurkat proliferation, 5-Fluorouracil 0.1 μg/ml",[6]; [9],10%
same,"% INHIBITION of Jurkat proliferation, 5-Fluorouracil 1.0 μg/ml",[6]; [10],21%
same,"% INHIBITION of Jurkat proliferation, 5-Fluorouracil 10.0 μg/ml",[6]; [11],40%
same,relative potency versus AGT SEQ ID NO:49,"[6]; Jurkat proliferation, PHARM/PCS-4 Software",3.4 times
same,"% INHIBITION of Jurkat proliferation, Cisplatin 0.1 μg/ml","[6]; cisplatin 0.1 μg/ml, alone or with sequence at 1.0 μg/ml",14%
same,"% INHIBITION of Jurkat proliferation, Cisplatin 1.0 μg/ml","[6]; cisplatin 1.0 μg/ml, alone or with sequence at 1.0 μg/ml",38%
same,"% INHIBITION of Jurkat proliferation, Cisplatin 10.0 μg/ml","[6]; cisplatin 10.0 μg/ml, alone or with sequence at 1.0 μg/ml",76%
same,potentiation of antineoplastic effect of 5-fluorouracil on Jurkat T cell proliferation,"[6]; sequence 1.0 μg/ml, 0.1 and 1.0 μg/ml 5-fluorouracil",potentiated
same,potentiation of antineoplastic effect of cisplatin on Jurkat T cell proliferation,"[6]; sequence 1.0 μg/ml, 0.1 and 1.0 μg/ml cisplatin",potentiated
same,"% INHIBITION of Jurkat proliferation, 5-Fluorouracil 0.0 μg/ml",[6]; [12],0%
same,"% INHIBITION of Jurkat proliferation, Cisplatin 0.0 μg/ml","[6]; sequence at 1.0 μg/ml, cisplatin 0.0 μg/ml",0%
same,% INHIBITION of LNCaP human prostate cancer cell proliferation,[7],18%
same,% INHIBITION of THP-1 human acute monocytic leukemia cell proliferation,[8],15%
TTGTTT [SEQ ID NO:26],% INHIBITION of A20 murine B leukemia cell proliferation,[1],15%
same,% of cells in apoptosis (positive for PS/A-V staining),[2],14%
same,IL-1 beta fold increase: mean +/− SD,[3],1.5 +/− 0.9 fold increase
same,IL-6 fold increase: mean +/− SD,[3],5.8 +/− 8.0 fold increase
same,IL-10 fold increase: mean +/− SD,[3],1.0 +/− 0.1 fold increase
same,IL-12 fold increase: mean +/− SD,[3],1.6 +/− 1.3 fold increase
same,IL-10 fold increase: mean +/− SD,chimpanzee PBMCs,1.4 +/− 0.9 fold increase
same,IL-12 fold increase: mean +/− SD,chimpanzee PBMCs,12.3 +/− 8.5 fold increase
same,TNF-alpha fold increase: mean +/− SD,chimpanzee PBMCs,7.5 +/− 4.6 fold increase
same,% INHIBITION of MCF-7 human breast cancer cell proliferation,[4],20%
same,↑ IL-6 (fold increase treated vs control cells),[5],5.3 x
same,↑ IL-12 (fold increase treated vs control cells),[5],3.5x and 3.8x
same,% INHIBITION of Jurkat proliferation at suboptimal concentration,[6],−2%
same,% INHIBITION of Jurkat human leukemia T cell proliferation,[6],34%
same,% INHIBITION of LNCaP human prostate cancer cell proliferation,[7],22%
same,% INHIBITION of THP-1 human acute monocytic leukemia cell proliferation,[8],1%
